We go through 30 molecules from patent US20060063782A1, “3-Hetero arylmethoxy ! pyridines and their analogues as p38 map kinase inhibitors” (priority 2002, published 2006).

Where only a bound is given, the exact number is not on record here.

The first assay deals with p38 MAP kinase (Homo sapiens, UniProt Q16539). The assay can be described thus: p38 MAP Kinase Assay (33P incorporation into myelin basic protein, filter plate). It is filed as biochemical. The note with it: Table 1; MKK6-activated p38, MBP substrate, 50 minutes.
Sequence of p38 MAP kinase (Q16539 whole entry): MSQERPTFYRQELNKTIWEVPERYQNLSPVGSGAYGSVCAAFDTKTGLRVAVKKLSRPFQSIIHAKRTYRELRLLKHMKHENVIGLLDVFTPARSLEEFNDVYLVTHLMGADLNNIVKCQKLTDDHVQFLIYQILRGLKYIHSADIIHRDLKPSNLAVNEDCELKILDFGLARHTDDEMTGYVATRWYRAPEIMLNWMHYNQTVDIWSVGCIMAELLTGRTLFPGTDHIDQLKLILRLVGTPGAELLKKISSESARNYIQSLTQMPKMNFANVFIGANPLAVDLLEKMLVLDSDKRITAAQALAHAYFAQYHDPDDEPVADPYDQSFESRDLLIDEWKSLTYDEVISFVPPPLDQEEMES
In general, IC50 refers to the concentration needed to halve the response being measured. Take `O=C(Nc1ccc(Cl)c(COc2ccc(NCCO)nc2)c1)c1cc(F)cc(N2CCOCC2)c1` [Compound 76, N-{4-Chloro-3-[6-(2-hydroxy-ethylamino)-pyridin-3-yloxymethyl]-phenyl}-3-fluoro-5-morpholin-4-yl-benzamide]: the half-inhibitory concentration (IC50) was less than 2 µM.

The same assay, now with this note: Table 2; MKK6-activated p38, MBP substrate, 50 minutes.
With `O=C(Nc1ccc(Cl)c(COc2cnccn2)c1)c1cc(F)cc(N2CCOCC2)c1` [Compound 94, N-[4-Chloro-3-(pyrazin-2-yloxymethyl)-phenyl]-3-fluoro-5-morpholin-4-yl-benzamide], the IC50 is less than 2 µM.

The molecule `O=C(Nc1ccc(F)c(COc2cnccn2)c1)c1cc(N2CCOCC2)nc(N2CCOCC2)n1` [Compound 150, 2,6-Di-morpholin-4-yl-pyrimidine-4-carboxylic acid [4-fluoro-3-(pyrazin-2-yloxymethyl)-phenyl]-amide] came in with an IC50 of less than 2 µM. On the same count and under the same terms, the same measure for `Cc1nc(-c2cccc(C(=O)Nc3ccc(F)c(COc4cnccn4)c3)c2)cs1` [Compound 151, N-[4-Fluoro-3-(pyrazin-2-yloxymethyl)-phenyl]-3-(2-methyl-thiazol-4-yl)-benzamide]: less than 2 µM. Molecule `Clc1cccc(Cl)c1COc1cnc(N2CCOCC2)cn1` [Compound 152, 4-[5-(2,6-Dichloro-benzyloxy)-pyrazin-2-yl]-morpholine] registered a half-maximal inhibitory concentration (IC50) of less than 200 µM. As for `CC(C)(C)c1cc(NC(=O)Nc2ccc(F)c(COc3cnccn3)c2)n(Cc2ccccc2)n1` [Compound 153, 1-(2-Benzyl-5-tert-butyl-2H-pyrazol-3-yl)-3-[4-fluoro-3-(pyrazin-2-yloxymethyl)-phenyl]-urea], the IC50 is less than 2 µM. `CC(Nc1cnc(OCc2c(Cl)cccc2Cl)cn1)c1ccccc1` (centres unmarked) [Compound 154, [5-(2,6-Dichloro-benzyloxy)-pyrazin-2-yl]-(1-phenyl-ethyl)-amine] came in with an IC50 of less than 20 µM. Still for that read-out and setting: to `CC(C)(C)c1cc(NC(=O)Nc2ccc(F)c(COc3cnccn3)c2)n(-c2nc3ccccc3s2)n1` [Compound 155, 1-(2-Benzothiazol-2-yl-5-tert-butyl-2H-pyrazol-3-yl)-3-[4-fluoro-3-(pyrazin-2-yloxymethyl)-phenyl]-urea] belongs less than 20 µM; to `CC(C)(C)c1cc(NC(=O)Nc2ccc(F)c(COc3cnccn3)c2)n(-c2ccc(Cl)nn2)n1` [Compound 156, 1-[5-tert-Butyl-2-(6-chloro-pyridazin-3-yl)-2H-pyrazol-3-yl]-3-[4-fluoro-3-(pyrazin-2-yloxymethyl)-phenyl]-urea], less than 2 µM. Same read-out and setting: to `Cc1cc(-n2nc(C(C)(C)C)cc2NC(=O)Nc2ccc(F)c(COc3cnccn3)c2)nc(C)n1` [Compound 157, 1-[5-tert-Butyl-2-(2,6-dimethyl-pyrimidin-4-yl)-2H-pyrazol-3-yl]-3-[4-fluoro-3-(pyrazin-2-yloxymethyl)-phenyl]-urea] belongs less than 2 µM. Regarding `OCCNc1cnc(OCc2c(Cl)cccc2Cl)cn1` [Compound 158, 2-[5-(2,6-Dichloro-benzyloxy)-pyrazin-2-ylamino]-ethanol], the IC50 is less than 200 µM. Molecule `C[S+]([O-])c1nnc(NC(=O)Nc2ccc(F)c(COc3cnccn3)c2)s1` (centres unmarked) [Compound 159, 1-[4-Fluoro-3-(pyrazin-2-yloxymethyl)-phenyl]-3-(5-methanesulfinyl-[1,3,4]thiadiazol-2-yl)-urea] gave a half-maximal inhibitory concentration (IC50) of less than 1000 µM.

Consider `CC(C)(C)c1cc(NC(=O)Nc2ccc(F)c(COc3cnccn3)c2)n(-c2ccncc2)n1` [Compound 160, 1-(5-tert-Butyl-2-pyridin-4-yl-2H-pyrazol-3-yl)-3-[4-fluoro-3-(pyrazin-2-yloxymethyl)-phenyl]-urea], for which the IC50 is less than 2 µM.

`O=C(Nc1ccc(F)c(COc2cnccn2)c1)Nc1cc(C2CCCO2)nn1-c1ccc(F)cc1` (centres unmarked) [Compound 161, 1-[2-(4-Fluoro-phenyl)-5-(tetrahydro-furan-2-yl)-2H-pyrazol-3-yl]-3-[4-fluoro-3-(pyrazin-2-yloxymethyl)-phenyl]-urea]: the concentration for half-maximal inhibition (IC50) was less than 2 µM. On the same count and under the same terms, to `CN1CCCC(CNC(=O)c2cnc(OCc3c(Cl)cccc3Cl)cn2)C1` (centres unmarked) [Compound 162] belongs less than 1000 µM; to `CC(C)(C)c1cc(NC(=O)Nc2ccc(F)c(COc3cnccn3)c2)n(-c2ccc(S(C)(=O)=O)cc2)n1` [Compound 163, 1-[5-tert-Butyl-2-(4-methanesulfonyl-phenyl)-2H-pyrazol-3-yl]-3-[4-fluoro-3-(pyrazin-2-yloxymethyl)-phenyl]-urea], less than 2 µM; to `CC(C)(C)c1ccc(-n2nc(C3CC3)cc2NC(=O)Nc2ccc(F)c(COc3cnccn3)c2)cc1` [Compound 164, 1-[2-(4-tert-Butyl-phenyl)-5-cyclopropyl-2H-pyrazol-3-yl]-3-[4-fluoro-3-(pyrazin-2-yloxymethyl)-phenyl]-urea], less than 200 µM.

`O=C(Nc1ccc(F)c(COc2cnccn2)c1)Nc1cc(C2CCOCC2)nn1-c1ccc(F)cc1` [Compound 165, 1-[2-(4-Fluoro-phenyl)-5-(tetrahydro-pyran-4-yl)-2H-pyrazol-3-yl]-3-[4-fluoro-3-(pyrazin-2-yloxymethyl)-phenyl]-urea] gave an IC50 of less than 2 µM.

Consider `Clc1cccc(Cl)c1COc1cnc(NC2CCOCC2)cn1` [Compound 166], for which the IC50 is less than 200 µM.

On to `CC(C)(C)C(=O)Nc1cnc(OCc2c(Cl)cccc2Cl)cn1` [Compound 167], for which the concentration for half-maximal inhibition (IC50) was less than 200 µM.

With `CC1(C(=O)Nc2cnc(OCc3c(Cl)cccc3Cl)cn2)CC1` [Compound 168], the half-inhibitory concentration (IC50) is less than 200 µM.

For the molecule `CN1CCC(CC(=O)Nc2cnc(OCc3c(Cl)cccc3Cl)cn2)CC1` [Compound 169], the IC50 was less than 200 µM.

In the case of `CN1CCN(CC(=O)Nc2cnc(OCc3c(Cl)cccc3Cl)cn2)CC1` [Compound 170], the half-inhibitory concentration (IC50) is less than 20 µM. On the same count and under the same terms, the same measure for `O=C(CN1CCOCC1)Nc1cnc(OCc2c(Cl)cccc2Cl)cn1` [Compound 171]: less than 200 µM; for `O=C(CN1CCCCC1)Nc1cnc(OCc2c(Cl)cccc2Cl)cn1` [Compound 172]: less than 200 µM. The same measure, in the same setting: the same measure for `O=C(CC1CCOCC1)Nc1cnc(OCc2c(Cl)cccc2Cl)cn1` [Compound 173]: less than 200 µM; for `O=C(Cn1ccnc1)Nc1cnc(OCc2c(Cl)cccc2Cl)cn1` [Compound 174]: less than 20 µM; for `O=C(Nc1cnc(OCc2c(Cl)cccc2Cl)cn1)N1CCOCC1` [Compound 175]: less than 2 µM. `CC(C)(CO)NC(=O)Nc1cnc(OCc2c(Cl)cccc2Cl)cn1` [Compound 176]: the IC50 is less than 2 µM. On to `CC(C)(CO)C(=O)Nc1cnc(OCc2c(Cl)cccc2Cl)cn1` [Compound 177], for which the IC50 was less than 200 µM.

A further assay concerns LPS-induced TNF-α production in THP-1 cells. The assay can be described thus: Inhibition of LPS-Induced TNF-α Production in THP-1 Cells (ELISA). It is filed as cell-based. The following applies: Homo sapiens; PMA-treated THP-1 cells, 1 μg/ml LPS, 6 hours, TNF-α by ELISA; read-out: IC50 (inhibition of TNF-α release). The procedure: THP-1 cells were suspended in culture medium containing 50 ng/ml PMA (SIGMA), seeded into a 96-well tissue culture plate (IWAKI) at 1×10^5 cells/well (100 μl/well) and incubated as described above for approximately 48 hours. The medium was then aspirated, the wells washed twice in Phosphate Buffered Saline and 1 μg/ml LPS (SIGMA) in culture medium was added (200 μl/well).
Test compounds were reconstituted in DMSO (SIGMA) and then diluted with the culture medium such that the final DMSO concentration was 0.1%. Twenty microlitre aliquots of test solution or medium only with DMSO (solvent control) were added to triplicate wells immediately following LPS addition, and incubated for 6 hours as described above. Culture supernatants were collected and the amount of human TNF-α present was determined by ELISA (R&D Systems) performed according to the manufacturer's instructions.
The IC50 was defined as the concentration of the test compound corresponding to half maximal inhibition of the control activity by non-linear regression analysis of their inhibition curves.
A general note: An ELISA detects its analyte on a solid surface through an enzyme-linked reagent.
For `O=C(Nc1ccc(Cl)c(COc2ccc(NCCO)nc2)c1)c1cc(F)cc(N2CCOCC2)c1` [Compound 76, N-{4-Chloro-3-[6-(2-hydroxy-ethylamino)-pyridin-3-yloxymethyl]-phenyl}-3-fluoro-5-morpholin-4-yl-benzamide], the half-inhibitory concentration (IC50) came to 0.97 µM. As to `O=C(Nc1ccc(Cl)c(COc2cnccn2)c1)c1cc(F)cc(N2CCOCC2)c1` [Compound 94, N-[4-Chloro-3-(pyrazin-2-yloxymethyl)-phenyl]-3-fluoro-5-morpholin-4-yl-benzamide], the IC50 is 0.21 µM.
